Measurements taken from US20220400686A1, “COMPOSITIONS AND METHODS FOR ON-DEMAND RELEASE OF ANTIMICROBIAL AGENTS” (priority 2019, published 2022).

Tests used:
S. aureus = assay: Specific and nonspecific cleavage in human serum with/without MN, read out by S. aureus culture in the supernatant; assay type: cell-based; conditions: PEGDMA-Oligo-Gentamicin hydrogel incubated 2 h in human serum with/without MN
Protocol: The data also support faster oligo cleavage by MN than by other nucleases present in the human serum.
Briefly, the PEGDMA-Oligo-Gentamicin hydrogel (50 μL, 8 mm in diameter, n=3) was immersed in 0.25 mL of human serum with or without MN (0.1 U/mL) and incubated at 37° C. for 2 h. The hydrogel was then removed while 0.25 mL of LB media containing 250 CFU S. aureus was added. The culture of S. aureus was incubated for 24 h at 37° C. with shaking.

[1] = biological target: T1, micrococcal nuclease (MN) (Staphylococcus aureus, UniProt P00644); assay: Enzymatic oligo digestion by micrococcal nuclease monitored by GPC; assay type: biochemical, S. aureus
T1 construct: purchased Worthington Biochemical Corporation; host or cells: S. aureus strain ATCC #27735
From the text: The cleavage of the oligo probe (synthesized and purified by Integrated DNA Technologies) by MN (source: S. aureus strain ATCC #27735; Worthington Biochemical Corporation) was first validated prior to its conjugation with vancomycin or PEGDMA hydrogel.
The digestion of the methacrylated oligo by micrococcal nuclease (MN, 0.1-1.0 U/μL) was monitored by aqueous gel permeation chromatography (GPC) on a Varian ProStar HPLC system with two PL Aquagel-OH columns (Agilent Technologies) and a UV detector. The eluent was aqueous PBS (10 mM, pH 7.4) and the flow rate was 1.0 mL/min. Detection of the oligo probe and its fragments upon digestion was enabled by UV absorbance at 260 nm. Extinction coefficient of 2′-O-methyl-modified nucleotides was assumed to be the same as that of RNA. All measurements were performed in triplicates.

Substance | total CFU count of S. aureus after 24-h culture in supernatant (S. aureus) | cleavage of the oligo by MN (fragments by GPC, UV 260 nm) ([1]; MN 0.1 U/μL, PBS pH 7.4 10 mM, physiological concentration of calcium ions) | cleavage of the oligo by MN ([1]; absence of calcium ions)
/5Carboxyl/mCmGTTmCmG/3Acryd/ [0 PS oligo] | least or no CFU count | two fragments | very little cleavage
/5Carboxyl/*mC*mG*TT*mC*mG*/3Acryd/ [6 PS] | increased accordingly | – | –
/5Carboxyl/*mC*mGTTmC*mG*/3Acryd/ [4 PS] | increased accordingly | – | –
